Laboratory results taken from patent US10391070B2, “Compositions and methods for treating neurological diseases or injury” (MUSC FOUNDATION FOR RESEARCH DEVELOPMENT, priority 2012, dated 2019).

Key:
HT22 cells = assay: t-BuOOH toxicity protection (MTS cell viability); type: cell-based, mouse; details: HT22, 50 μM t-BuOOH
Method: Cell viability was assessed by the ability of the viable cells to metabolize 3-(4,5-dimethylthiazol-2-yl)-5-(3-carboxymethoxyphenyl)-2(4-sulfophenyl)2-H-tetrazolium, inner salt (MTS), as described previously (Cory et al., 1991). The metabolism of tetrazolium salts is often used to measure cellular proliferation, but in the system used here, it has been previously shown to correlate well with cell viability as determined by trypan blue exclusion and colony-forming assays (Davis and Maher, 1994). Briefly, HT-22 cells were seeded onto 96-well plates at 5.0×10^3 cells per well in 75 μL of medium and maintained at 37° C. in 5% CO2 overnight prior to the initiation of experimental treatments. For glutamate toxicity testing, cells were subsequently treated with 25 μL of medium containing glutamate (monosodium glutamate, Sigma, 1 M stock concentration in media, to achieve a final concentration of 10 mM) plus inhibitors (stock in DMSO) and maintained at 37° C. in 5% CO2. For t-BuOOH toxicity testing, cells were subsequently treated with 25 μL of medium containing t-BuOOH (Sigma, 10 mM stock concentration, to achieve a final concentration of 50 μM) plus inhibitors (stock in DMSO) and maintained at 37° C. in 5% CO2 for 3 hours, after which the media was removed, cells washed gently with HBSS, the media replaced with standard culture media, and the cells returned to incubation at 37° C. in 5% CO2. For both glutamate and t-BuOOH treatments, 10 μl of MTS solution was added to each well 24 hrs after initial treatment, and the cells were maintained in growth medium for 2 h at 37° C. Absorbance at 490 nm was subsequently measured by a SpectraMax 190 plate reader (Molecular Devices). The growth medium without cells in the presence of MTS solution was used as solution background and untreated cells were considered the controls. Cell viability was calculated as a percentage compared with untreated controls. EC50 determinations were based on 12-point titrations using GraphPad Prism, and each experiment was repeated at least four times. Morphology of HT22 cells following treatments was determined by phase-contrast microscopy. Digital images of cells grown on cell culture plates were captured at 10× magnification.
In light of the findings that the protection against glutamate induced cell death provided by VK2, 2q, and 2j, are at least partially mediated by the attenuation of the increased production of endogenous ROS, the inventors also examined the effects of these compounds on tert-butylhydroperoxide (t-BuOOH) induced cell death. t-BuOOH is a short chain analog of the lipid hydroperoxides formed from peroxidation reactions during oxidative stress that is cytotoxic to cells (Lemasters and Nieminen, 1997). […] It is well documented that cells undergo rapid and extensive fragmentation in the early stages of cell death (Bossy-Wetzel et al., 2003; Frank et al., 2001; Breckenridge et al., 2008; Jagasia et al., 2005; Lee et al., 2004). Recent studies have shown that mitochondrial fragmentation is regulated by the translocation of dynamin-related protein 1 (Drp1) from the cytosol to the mitochondria, where it assembles to form spirals at division sites (Smirnova et al., 2001). Although the exact molecular mechanism is still not well studied, the activity of Drp1 is regulated by the phosphorylation and dephosphorylation of specific serine residues by protein kinases and phosphatases such as calcineurin and the PGAM5 (Wang et al., 2012; Chang et al., 2007). […]

HT-22 neuronal cells = assay: Respirometry (OCR, ECAR; Seahorse XF-96); type: cell-based, mouse; design: ECAR (glycolysis), difference from control: unit not given here; details: HT-22 cells, mean±SEM; for basal cellular respiration, difference in OCR from control: 1 h treatment, OCR as percentage of pre-treatment value; for basal mitochondrial respiration, difference from control: basal minus non-mitochondrial (rotenone); for ATP-linked respiration, difference from control: basal minus oligomycin
Method: Oxygen consumption rates (OCR) and extracellular acidification rates (ECAR) of HT-22 neuronal cells were performed on the XF-96 Extracellular Flux Analyzer (Seahorse Bioscience) using standard methods (Beeson et al., 2010). In brief, cells were cultured in 96 well Seahorse plates in DMEM high glucose media (Invitrogen) supplemented with 10% FBS, 10 mM HEPES, and 1% antibiotic-antimycotic (Invitrogen). The media was replaced with DMEM media supplemented with 25 mM glucose, 10 mM sodium pyruvate, 31 mM NaCl, and 2 mM glutamine at pH 7.4. Each of the four drug ports on the Seahorse sensor cartridge were filled with test compound (media only, 5 μM NQN-1, 10 μM VK3 or 12.5 μM MB), 10 μM oligomycin, 1 μM FCCP, and 5 μM rotenone, which were injected into each well at 20, 80, 110, and 135 min, respectively. The pmol/min OCR rate for each well (9-52 wells/group) was measured. Wells were excluded from the analysis if their OCR values surpassed the Tukey Outlier Rule. In order to standardize the OCR rates across wells, the average OCR value at 17 min (last time point prior to injection of the test compounds) for each experimental group was calculated, and set to 100. All OCR values are given as a percentage of this pre-treatment value. […]

Compound | protection from t-BuOOH induced cell death (HT22 cells) | basal cellular respiration, difference in OCR from control (HT-22 neuronal cells) | basal mitochondrial respiration, difference from control (HT-22 neuronal cells) | ATP-linked respiration, difference from control (HT-22 neuronal cells) | ECAR (glycolysis), difference from control (HT-22 neuronal cells)
O=C1C=C(NCc2ccccc2)C(=O)c2ccccc21 [Compound 2j, 2-(benzylamino)naphthalene-1,4-dione] | capable of protecting HT22 cells from t-BuOOH | −4.14±2.9 | 9.09±3.13 | 6.58±3.28 | 5.03±1.11
O=C1C=C(NCc2cccc(Cl)c2)C(=O)c2ccccc21 [Compound 2q, 2-((3-chlorobenzyl)amino)naphthalene-1,4-dione] | capable of protecting HT22 cells from t-BuOOH |  |  |  | 
CC1=CC(=O)c2ccccc2C1=O [VK3, menadione, reference compound] |  | 21.57±0.97 | elevated but failed to reach statistical significance | 12.2±3.12 | 1.89±0.93
menaquinones [VK2, reference compound] | capable of protecting HT22 cells from t-BuOOH |  |  |  | 
